Some targets named below: Cannabinoid receptor 1 (Homo sapiens, UniProt P21554); Melanocortin receptor 4 (Homo sapiens, UniProt P32245); Mu-type opioid receptor (Homo sapiens, UniProt P35372).
Test [1] has as its target T1, Alpha-1A adrenergic receptor (Homo sapiens, UniProt P35348).
T1 sequence (P35348 whole entry): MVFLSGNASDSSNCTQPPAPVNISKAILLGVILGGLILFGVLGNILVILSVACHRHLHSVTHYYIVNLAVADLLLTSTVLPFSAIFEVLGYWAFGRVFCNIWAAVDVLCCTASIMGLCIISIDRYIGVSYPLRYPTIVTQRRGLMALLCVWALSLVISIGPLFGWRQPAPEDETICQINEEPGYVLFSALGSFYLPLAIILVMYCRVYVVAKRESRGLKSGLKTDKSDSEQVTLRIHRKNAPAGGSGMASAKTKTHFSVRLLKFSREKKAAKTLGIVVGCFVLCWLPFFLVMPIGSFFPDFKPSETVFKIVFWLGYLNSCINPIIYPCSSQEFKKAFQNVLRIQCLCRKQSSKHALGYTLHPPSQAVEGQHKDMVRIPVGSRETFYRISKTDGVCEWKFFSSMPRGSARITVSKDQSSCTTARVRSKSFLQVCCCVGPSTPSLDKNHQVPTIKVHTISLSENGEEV
It counts as functional, cell-based.

In test [2] the target is 3',5'-cyclic-AMP phosphodiesterase 4D (Homo sapiens, UniProt Q08499). It counts as functional.
Chain of 3',5'-cyclic-AMP phosphodiesterase 4D (Q08499 whole entry): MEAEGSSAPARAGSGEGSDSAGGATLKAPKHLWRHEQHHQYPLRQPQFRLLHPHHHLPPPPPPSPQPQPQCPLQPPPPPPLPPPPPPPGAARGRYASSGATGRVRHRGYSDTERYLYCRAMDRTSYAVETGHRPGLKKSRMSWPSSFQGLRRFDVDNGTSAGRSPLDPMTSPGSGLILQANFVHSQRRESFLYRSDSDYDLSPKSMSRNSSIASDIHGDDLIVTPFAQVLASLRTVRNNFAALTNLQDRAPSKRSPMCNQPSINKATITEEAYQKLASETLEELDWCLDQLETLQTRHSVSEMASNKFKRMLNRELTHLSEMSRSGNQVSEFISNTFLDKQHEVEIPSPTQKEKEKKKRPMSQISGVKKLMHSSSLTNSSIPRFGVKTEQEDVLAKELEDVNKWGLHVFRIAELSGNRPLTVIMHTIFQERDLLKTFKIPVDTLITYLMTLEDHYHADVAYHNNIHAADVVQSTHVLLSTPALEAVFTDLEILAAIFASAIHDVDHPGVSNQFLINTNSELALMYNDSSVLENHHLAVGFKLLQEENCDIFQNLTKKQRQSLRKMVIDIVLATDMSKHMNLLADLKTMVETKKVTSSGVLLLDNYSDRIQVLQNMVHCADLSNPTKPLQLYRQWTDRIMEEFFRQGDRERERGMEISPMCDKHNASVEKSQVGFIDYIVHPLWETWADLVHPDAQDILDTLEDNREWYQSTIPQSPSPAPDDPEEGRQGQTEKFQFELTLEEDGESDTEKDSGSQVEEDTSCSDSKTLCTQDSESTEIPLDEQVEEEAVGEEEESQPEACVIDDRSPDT
A further test concerns the target T2, Thromboxane A2 receptor (Homo sapiens, UniProt P21731).
T2 sequence (P21731 whole entry): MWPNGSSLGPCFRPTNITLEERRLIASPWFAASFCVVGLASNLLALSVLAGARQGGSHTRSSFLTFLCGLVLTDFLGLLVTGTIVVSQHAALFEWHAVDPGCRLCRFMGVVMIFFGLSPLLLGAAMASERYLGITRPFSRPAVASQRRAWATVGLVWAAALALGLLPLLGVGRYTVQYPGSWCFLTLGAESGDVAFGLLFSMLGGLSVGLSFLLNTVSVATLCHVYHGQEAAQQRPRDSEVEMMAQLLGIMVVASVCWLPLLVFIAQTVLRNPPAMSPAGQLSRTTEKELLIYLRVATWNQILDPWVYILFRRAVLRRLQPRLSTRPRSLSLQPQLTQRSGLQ

Test [3] addresses T1, Alpha-1A adrenergic receptor.
In test [4] the target is T3, 5-hydroxytryptamine receptor 3A (Homo sapiens, UniProt P46098).
T3 sequence (P46098 whole entry): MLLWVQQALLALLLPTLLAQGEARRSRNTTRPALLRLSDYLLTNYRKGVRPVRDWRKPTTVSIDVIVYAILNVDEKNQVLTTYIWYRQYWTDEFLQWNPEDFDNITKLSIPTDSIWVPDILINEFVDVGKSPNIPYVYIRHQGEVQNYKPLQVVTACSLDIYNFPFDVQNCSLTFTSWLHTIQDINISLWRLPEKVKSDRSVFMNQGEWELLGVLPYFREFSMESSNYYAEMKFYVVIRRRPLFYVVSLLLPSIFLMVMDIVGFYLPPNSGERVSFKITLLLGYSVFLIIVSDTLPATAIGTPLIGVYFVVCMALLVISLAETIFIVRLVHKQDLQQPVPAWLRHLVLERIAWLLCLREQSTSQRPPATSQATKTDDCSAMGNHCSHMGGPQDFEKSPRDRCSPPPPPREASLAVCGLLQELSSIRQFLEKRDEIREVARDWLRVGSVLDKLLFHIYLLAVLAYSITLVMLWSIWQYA
The format is functional.

A further test addresses Histamine H2 receptor (Homo sapiens, UniProt P25021). It counts as functional, cell-based.
For test [5], the target named is T4, Cholecystokinin receptor type A (Homo sapiens, UniProt P32238).
T4 sequence (P32238 whole entry): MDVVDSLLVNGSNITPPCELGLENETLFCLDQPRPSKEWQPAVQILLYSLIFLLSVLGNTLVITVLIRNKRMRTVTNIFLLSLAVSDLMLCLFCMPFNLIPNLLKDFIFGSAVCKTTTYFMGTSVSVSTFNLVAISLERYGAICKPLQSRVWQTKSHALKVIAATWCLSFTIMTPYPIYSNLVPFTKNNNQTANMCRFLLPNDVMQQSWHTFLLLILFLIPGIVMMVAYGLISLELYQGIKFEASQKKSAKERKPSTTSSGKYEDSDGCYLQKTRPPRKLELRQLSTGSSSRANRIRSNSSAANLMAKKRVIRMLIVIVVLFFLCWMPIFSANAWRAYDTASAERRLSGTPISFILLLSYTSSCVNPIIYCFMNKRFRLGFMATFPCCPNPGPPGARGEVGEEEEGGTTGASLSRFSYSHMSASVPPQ

Molecules are shown by their SMILES. A value given as a limit tells only on which side of the number the result lay.
Also: assay procedure not described here.

Chain of Melanocortin receptor 4 (P32245 whole entry): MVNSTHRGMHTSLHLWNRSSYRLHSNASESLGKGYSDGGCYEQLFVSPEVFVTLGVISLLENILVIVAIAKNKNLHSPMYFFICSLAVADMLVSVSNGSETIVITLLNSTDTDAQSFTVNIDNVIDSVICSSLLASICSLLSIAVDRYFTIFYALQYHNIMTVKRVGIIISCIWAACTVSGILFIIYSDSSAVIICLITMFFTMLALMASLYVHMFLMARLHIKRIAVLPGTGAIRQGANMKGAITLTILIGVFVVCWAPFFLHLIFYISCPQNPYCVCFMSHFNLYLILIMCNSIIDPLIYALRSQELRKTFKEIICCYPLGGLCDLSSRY
Chain of Histamine H2 receptor (P25021 whole entry): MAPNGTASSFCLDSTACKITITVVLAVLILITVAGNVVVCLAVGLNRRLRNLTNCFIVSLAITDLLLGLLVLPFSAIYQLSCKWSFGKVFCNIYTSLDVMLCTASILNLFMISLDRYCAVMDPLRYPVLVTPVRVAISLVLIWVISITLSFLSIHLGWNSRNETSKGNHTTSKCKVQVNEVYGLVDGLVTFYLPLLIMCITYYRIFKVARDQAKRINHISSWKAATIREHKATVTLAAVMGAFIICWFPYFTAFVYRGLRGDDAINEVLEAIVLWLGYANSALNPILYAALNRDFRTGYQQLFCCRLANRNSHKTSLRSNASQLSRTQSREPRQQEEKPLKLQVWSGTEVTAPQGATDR
Chain of Cannabinoid receptor 1 (P21554 whole entry): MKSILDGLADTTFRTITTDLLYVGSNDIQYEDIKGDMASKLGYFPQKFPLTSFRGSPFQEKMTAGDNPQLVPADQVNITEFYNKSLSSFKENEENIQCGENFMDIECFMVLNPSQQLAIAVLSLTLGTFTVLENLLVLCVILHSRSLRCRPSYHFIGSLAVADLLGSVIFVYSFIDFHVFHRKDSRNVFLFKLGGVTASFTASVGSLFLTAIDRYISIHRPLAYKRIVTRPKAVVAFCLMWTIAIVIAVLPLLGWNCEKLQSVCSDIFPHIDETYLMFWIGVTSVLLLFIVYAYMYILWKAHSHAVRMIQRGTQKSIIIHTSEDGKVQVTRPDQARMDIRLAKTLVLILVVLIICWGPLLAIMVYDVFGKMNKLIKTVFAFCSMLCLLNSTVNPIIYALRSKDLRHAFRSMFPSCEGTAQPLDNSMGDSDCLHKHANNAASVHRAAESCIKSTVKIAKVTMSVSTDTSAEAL
Chain of Mu-type opioid receptor (P35372 whole entry): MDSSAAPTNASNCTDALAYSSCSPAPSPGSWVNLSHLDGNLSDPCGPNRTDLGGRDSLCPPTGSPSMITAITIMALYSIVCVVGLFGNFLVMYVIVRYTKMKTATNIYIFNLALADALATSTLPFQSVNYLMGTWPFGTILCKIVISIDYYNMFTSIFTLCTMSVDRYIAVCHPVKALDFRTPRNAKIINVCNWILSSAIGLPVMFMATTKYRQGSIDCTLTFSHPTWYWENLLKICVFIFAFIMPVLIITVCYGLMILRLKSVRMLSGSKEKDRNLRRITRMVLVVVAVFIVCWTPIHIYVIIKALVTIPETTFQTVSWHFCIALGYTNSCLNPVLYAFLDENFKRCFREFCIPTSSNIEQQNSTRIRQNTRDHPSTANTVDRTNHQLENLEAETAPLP

Regarding `CC=CC(=O)N(CC)c1ccccc1C`, the AC50 in [1] was more than 30 µM; at Cannabinoid receptor 1, more than 10 µM; in [2], more than 30 µM; on Thromboxane A2 receptor it was more than 10 µM; on Melanocortin receptor 4, more than 10 µM; in test [3], more than 10 µM. Also, the AC50 on Mu-type opioid receptor is more than 30 µM; in test [4], more than 30 µM; on Histamine H2 receptor, more than 10 µM; in test [5], more than 10 µM.

As to `C#C[C@]1(O)CC[C@H]2[C@@H]3CCC4=Cc5oncc5C[C@]4(C)[C@H]3CC[C@@]21C` [DANAZOL], the half-maximal activity concentration (AC50) was more than 30 µM in test [1]; more than 10 µM at Cannabinoid receptor 1; more than 10 µM at Thromboxane A2 receptor; more than 10 µM on Melanocortin receptor 4; more than 10 µM in [3]; more than 30 µM at Mu-type opioid receptor. Further, the AC50 (at Histamine H2 receptor; in test [5]) was more than 10 µM each time.

As for `CC(C)Cn1cnc2c(N)nc3ccccc3c21` [IMIQUIMOD], the AC50 at Cannabinoid receptor 1 is more than 10 µM; in test [2] it was 4.03 µM; on Thromboxane A2 receptor, more than 30 µM; on Melanocortin receptor 4 it was more than 10 µM; in [3], 5.67 µM; on Mu-type opioid receptor, more than 30 µM. Also, the half-maximal activity concentration (AC50) was more than 30 µM in test [4], more than 10 µM at Histamine H2 receptor and more than 10 µM in test [5].

Take `Cc1cccc(C(C)c2cnc[nH]2)c1C` (stereo unspecified) [MEDETOMIDINE]: the half-maximal activity concentration (AC50) on Cannabinoid receptor 1 was more than 30 µM; in test [2] it was more than 30 µM; at Thromboxane A2 receptor, more than 30 µM; on Melanocortin receptor 4 it was more than 30 µM; in test [3], 0.11 µM; on Mu-type opioid receptor, more than 30 µM. The AC50 (in test [4]; at Histamine H2 receptor; in [5]) was more than 30 µM in each case.

On to `C[C@](N)(Cc1ccc(O)c(O)c1)C(=O)O` [METHYLDOPA], for which the concentration at half-maximal activity (AC50) on Cannabinoid receptor 1 was more than 10 µM; in test [2] it was more than 30 µM; on Thromboxane A2 receptor, more than 10 µM; on Melanocortin receptor 4 it was more than 10 µM; in test [3] it was 7.1 µM; at Mu-type opioid receptor it was more than 30 µM. In addition, the AC50 in test [4] is more than 30 µM; at Histamine H2 receptor, more than 30 µM; in [5] it was more than 10 µM.

Take `O=C(NCCN1CCOCC1)c1ccc(Cl)cc1` [MOCLOBEMIDE]: the AC50 on Cannabinoid receptor 1 was more than 10 µM; in [2], more than 30 µM; at Thromboxane A2 receptor, more than 10 µM; at Melanocortin receptor 4 it was more than 10 µM; in test [3], more than 10 µM; on Mu-type opioid receptor it was more than 30 µM. In addition, the AC50 is more than 30 µM in [4], more than 10 µM on Histamine H2 receptor and more than 10 µM in test [5].

For `CCCN(CCC)C(=O)C(CCC(=O)O)NC(=O)c1ccccc1` (stereo unspecified) [PROGLUMIDE], the AC50 at Cannabinoid receptor 1 was more than 10 µM; in test [2], more than 30 µM; on Thromboxane A2 receptor, more than 30 µM; on Melanocortin receptor 4, more than 30 µM; in [3], more than 30 µM; at Mu-type opioid receptor it was more than 30 µM. In addition, the AC50 (in [4]; at Histamine H2 receptor; in test [5]) was more than 30 µM each time.

Take `C[C@]12CC[C@H]3[C@@H](CCC4=CC(=O)CC[C@@]43C)[C@@H]1CC[C@@H]2O` [TESTOSTERONE]: the AC50 was more than 10 µM at Cannabinoid receptor 1; more than 30 µM in test [2]; more than 10 µM at Thromboxane A2 receptor; more than 10 µM at Melanocortin receptor 4; more than 30 µM in test [3]; more than 30 µM on Mu-type opioid receptor. The AC50 in test [4] is more than 30 µM; at Histamine H2 receptor it was more than 30 µM; in [5], more than 10 µM.

In the case of `CN1C(=O)OC(C)(C)C1=O` [TRIMETHADIONE], the half-maximal activity concentration (AC50) is more than 10 µM on Cannabinoid receptor 1; more than 30 µM in test [2]; more than 10 µM at Thromboxane A2 receptor; more than 10 µM at Melanocortin receptor 4; more than 10 µM in [3]; more than 30 µM on Mu-type opioid receptor. Also, the AC50 in [4] was more than 30 µM; on Histamine H2 receptor it was more than 10 µM; in test [5], more than 10 µM.

Usually AC50 stands for the concentration at which the activity in the assay is half-maximal.

Source of the values: ChEMBL document CHEMBL5291721, “A preclinical secondary pharmacology resource illuminates target-adverse drug reaction associations of marketed drugs” (Nat Commun, 2023).
